In general, IC50 refers to the concentration at which inhibition is half-maximal.

The values that follow come from paper PMC2813863, “In Vivo Evaluation of α7 Nicotinic Acetylcholine Receptor Agonists [^11C]A-582941 and [^11C]A-844606 in Mice and Conscious Monkeys” (PLoS ONE, 2010).

One assay deals with α4β2 nAChRs. The note with it: read-out: IC50, displacement of [^3H]cytisine binding to α4β2 nAChRs; cited from earlier work.
The target of assay [1] is α7 nAChRs (Mus musculus, UniProt P49582). The note with it: in vivo. On the procedure:
In the other group of mice, a blocking experiment to determine the α7 nAChRs-specific regional brain uptake of the tracers was carried out. Each tracer (2 MBq/0.055–0.096 nmol) was co-injected with each of the following blockers into mice, and 15 ([^11C]A-582941) or 30 ([^11C]A-844606) min later the mice were killed (n = 5) and the tissue uptake of ^11C was expressed as the %ID/g. […] Each blocker was dissolved in 1N HCl to 40 mg/ml and diluted up to 0.4 mg/ml with saline. The co-injected dose was 1 mg/kg. In the control mice the same amount of 0.01 N HCl in saline was co-injected.

Assay [2] relates to α7 nAChRs. The note with it: read-out: IC50, displacement of [^3H]MLA binding; cited from earlier work.

α7 nAChRs (Mus musculus, UniProt P49582), sequence (P49582 23-502): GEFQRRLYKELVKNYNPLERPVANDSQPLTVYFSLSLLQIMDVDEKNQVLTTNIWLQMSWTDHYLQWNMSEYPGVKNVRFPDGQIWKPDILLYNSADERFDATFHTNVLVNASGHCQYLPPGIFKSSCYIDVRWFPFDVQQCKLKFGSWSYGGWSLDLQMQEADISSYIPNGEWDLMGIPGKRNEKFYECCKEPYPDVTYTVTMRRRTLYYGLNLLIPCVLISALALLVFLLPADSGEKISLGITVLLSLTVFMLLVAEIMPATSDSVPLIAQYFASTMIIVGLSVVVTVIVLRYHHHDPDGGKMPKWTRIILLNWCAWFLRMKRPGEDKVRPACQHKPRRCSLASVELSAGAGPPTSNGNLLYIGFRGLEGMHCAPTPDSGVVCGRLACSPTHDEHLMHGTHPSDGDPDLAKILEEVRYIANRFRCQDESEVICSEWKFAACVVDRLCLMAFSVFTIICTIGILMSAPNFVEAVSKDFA

Turning to `CN1CC2CN(c3ccc4oc5ccccc5c(=O)c4c3)CC2C1` (centres unmarked) [A-844606, 2-(5-methyl-hexahydro-pyrrolo[3,4-c]pyrrol-2-yl)-xanthene-9-one], the concentration for half-maximal inhibition (IC50) in the assay on α4β2 nAChRs is above 30 µM. Also, at α7 nAChRs [1], the “% Injected dose/g tissue, Blood” value was 0.91±0.10 % Injected dose/g tissue; the “% Injected dose/g tissue, Cerebellum” value worked out at 3.62±0.10 % Injected dose/g tissue; the “% Injected dose/g tissue, Cerebral cortex” value stood at 4.78±0.19 % Injected dose/g tissue; the “% Injected dose/g tissue, Hippocampus” value was 4.20±0.55 % Injected dose/g tissue. On α7 nAChRs [1], the “% Injected dose/g tissue, Hypothalamus” value is listed as 3.50±0.87 % Injected dose/g tissue; the “% Injected dose/g tissue, Medulla oblongata” value came out at 4.04±0.19 % Injected dose/g tissue; the “% Injected dose/g tissue, Midbrain” value stood at 4.29±0.11 % Injected dose/g tissue; the “% Injected dose/g tissue, Striatum” value is 3.94±0.89 % Injected dose/g tissue. Also, the “% Injected dose/g tissue, Whole brain” value at α7 nAChRs [1] stood at 4.27±0.18 % Injected dose/g tissue. Besides, the half-inhibitory concentration (IC50) with α7 nAChRs [2] is 0.011 µM.
